For 1 compound, IC50 results are on record in ChEMBL document CHEMBL5727531, “TrkA kinase inhibitors, compositions and methods thereof” (2020).

The IC50 is the concentration that gives 50% inhibition. The low end stands for higher potency, the high end for lower potency.

The target of this assay is High affinity nerve growth factor receptor (Homo sapiens, UniProt P04629). Kind of assay: Biological Assay: TrkA functional activity was measured using a DiscoverX PathHunter assay. In this assay, U2OS cells express the human TrkA receptor as a fusion with the weakly complementing fragment of B-galactosidase, which DiscoverX calls Prolink (PK); additionally, Shc1 is fused with a larger fragment, which is called Enzyme Acceptor (EA). Activation of the TrkA receptor, upon NGF addition, results in the kinase domain being phosphorylated, resulting in subsequent recruitment of Shc1-EA protein. That recruitment results in an active B-galactosidase enzyme that is detected by addition of a chemiluminescent substrate. The human p75NTR protein was also expressed as a co-receptor for NGF.
Sequence of High affinity nerve growth factor receptor (P04629 whole entry, the tested form may be a part): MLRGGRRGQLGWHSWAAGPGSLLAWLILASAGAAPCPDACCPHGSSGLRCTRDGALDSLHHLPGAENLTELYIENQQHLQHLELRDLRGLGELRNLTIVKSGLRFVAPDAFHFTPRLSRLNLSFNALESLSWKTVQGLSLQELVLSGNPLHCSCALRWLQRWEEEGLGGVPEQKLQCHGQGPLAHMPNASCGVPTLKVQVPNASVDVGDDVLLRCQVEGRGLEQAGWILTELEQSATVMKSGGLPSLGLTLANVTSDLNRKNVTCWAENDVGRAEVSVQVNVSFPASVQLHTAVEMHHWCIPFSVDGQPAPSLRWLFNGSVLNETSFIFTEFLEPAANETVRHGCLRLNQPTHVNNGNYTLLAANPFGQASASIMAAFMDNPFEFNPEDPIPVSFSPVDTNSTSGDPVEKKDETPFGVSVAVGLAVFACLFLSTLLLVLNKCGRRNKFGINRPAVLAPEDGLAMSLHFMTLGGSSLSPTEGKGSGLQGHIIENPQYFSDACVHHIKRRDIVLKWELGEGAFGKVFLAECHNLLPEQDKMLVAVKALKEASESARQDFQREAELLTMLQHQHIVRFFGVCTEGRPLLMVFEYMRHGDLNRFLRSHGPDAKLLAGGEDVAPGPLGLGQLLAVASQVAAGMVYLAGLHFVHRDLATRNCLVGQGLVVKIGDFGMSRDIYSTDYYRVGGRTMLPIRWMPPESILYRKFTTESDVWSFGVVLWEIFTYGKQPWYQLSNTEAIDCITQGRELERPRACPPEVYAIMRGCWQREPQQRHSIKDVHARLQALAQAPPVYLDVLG

With `Cn1ccc(-c2cc(C(=O)Nc3c(-c4ccccc4)ccc4c(C(C)(C)O)ncn34)c(F)cc2C(F)(F)F)n1`, the concentration for half-maximal inhibition (IC50) turned out to be 50 nM.
